Experimental data taken from the supplement of paper PMC10307832.

Assays:
Crizotinib = compound: C[C@@H](Oc1cc(-c2cnn(C3CCNCC3)c2)cnc1N)c1c(Cl)ccc(F)c1Cl [Crizotinib]; test: relative viability (nuclei count vs DMSO), 5 days (fraction); higher = more cells survive
Procedure, shortened: (§1)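 Lung cancer cell lines in 1536-well plates were exposed by pinning to five library-drug doses (not always all listed) √10 apart, following an overnight hold at 37 °C. MetaXpress counted Hoechst-stained nuclei from 4× images taken after 5 days without medium change. Viability is the median ratio of treated-well to vehicle-well nuclei across plates. Plates required control CV below 25% and at least one doubling.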

Olaparib = compound: O=C(c1cc(Cc2n[nH]c(=O)c3ccccc23)ccc1F)N1CCN(C(=O)C2CC2)CC1 [Olaparib]; test: as above
Procedure, shortened: as §1

Question: Which results are given for NCI-H2126?
Answer: relative viability (Crizotinib; 0.01 µM): 0.934; relative viability (Crizotinib; 0.03162 µM): 1.02; relative viability (Crizotinib; 0.1 µM): 0.959; relative viability (Crizotinib; 0.3162 µM): 0.914; relative viability (Crizotinib; 1 µM): 0.993; relative viability (Olaparib; 0.08 µM): 1.07; relative viability (Olaparib; 0.253 µM): 0.984; relative viability (Olaparib; 2.53 µM): 0.982; relative viability (Olaparib; 8 µM): 1.01; relative viability (Olaparib; 8 µM, anchor plate): 0.907

Question: For HCC-366, which relative viability (Crizotinib; 0.01 µM) is on record?
Answer: 0.952

Question: What about the relative viability (Crizotinib; 0.03162 µM) of the same cell line?
Answer: 1.01

Question: And the relative viability (Crizotinib; 1 µM)?
Answer: 1.07

Question: What about the relative viability (Crizotinib; 1 µM, anchor plate) of the same cell line?
Answer: 0.466

Question: What about the relative viability (Olaparib; 0.08 µM) of the same cell line?
Answer: 1.05

Question: What about the relative viability (Olaparib; 0.253 µM) of the same cell line?
Answer: 0.988

Question: And the relative viability (Olaparib; 2.53 µM)?
Answer: 0.943

Question: And the relative viability (Olaparib; 8 µM)?
Answer: 0.862

Question: And the relative viability (Olaparib; 8 µM, anchor plate)?
Answer: 0.352

Question: Which results are given for NCI-H2085?
Answer: relative viability (Crizotinib; 0.01 µM): 0.936; relative viability (Crizotinib; 0.03162 µM): 1.03; relative viability (Crizotinib; 0.1 µM): 0.977; relative viability (Crizotinib; 0.3162 µM): 1; relative viability (Crizotinib; 1 µM): 0.975; relative viability (Crizotinib; 1 µM, anchor plate): 0.882; relative viability (Olaparib; 0.08 µM): 1.16; relative viability (Olaparib; 0.253 µM): 0.912; relative viability (Olaparib; 2.53 µM): 0.983; relative viability (Olaparib; 8 µM): 0.959; relative viability (Olaparib; 8 µM, anchor plate): 0.769

Question: LU99A was tested. Which relative viability (Crizotinib; 0.01 µM) did it give?
Answer: 0.894

Question: What about the relative viability (Crizotinib; 0.03162 µM) of the same cell line?
Answer: 1.03

Question: What about the relative viability (Crizotinib; 0.3162 µM) of the same cell line?
Answer: 0.795

Question: What about the relative viability (Crizotinib; 1 µM) of the same cell line?
Answer: 0.969

Question: And the relative viability (Crizotinib; 1 µM, anchor plate)?
Answer: 0.547

Question: What about the relative viability (Olaparib; 0.08 µM) of the same cell line?
Answer: 0.98

Question: What about the relative viability (Olaparib; 0.253 µM) of the same cell line?
Answer: 0.837

Question: What about the relative viability (Olaparib; 2.53 µM) of the same cell line?
Answer: 0.776

Question: What about the relative viability (Olaparib; 8 µM) of the same cell line?
Answer: 0.532

Question: And the relative viability (Olaparib; 8 µM, anchor plate)?
Answer: 0.266

Question: Which results are given for NCI-H1944?
Answer: relative viability (Crizotinib; 0.01 µM): 0.879; relative viability (Crizotinib; 0.03162 µM): 0.992; relative viability (Crizotinib; 0.1 µM): 0.907; relative viability (Crizotinib; 0.3162 µM): 1.02; relative viability (Crizotinib; 1 µM): 0.893; relative viability (Crizotinib; 1 µM, anchor plate): 1.1; relative viability (Olaparib; 0.08 µM): 0.921; relative viability (Olaparib; 0.253 µM): 0.806; relative viability (Olaparib; 2.53 µM): 0.656; relative viability (Olaparib; 8 µM): 0.646; relative viability (Olaparib; 8 µM, anchor plate): 0.419

Question: Which results are given for NCI-H3122?
Answer: relative viability (Crizotinib; 0.01 µM): 0.944; relative viability (Crizotinib; 0.03162 µM): 0.988; relative viability (Crizotinib; 0.1 µM): 1.02; relative viability (Crizotinib; 0.3162 µM): 0.864; relative viability (Crizotinib; 1 µM): 0.798; relative viability (Crizotinib; 1 µM, anchor plate): 0.275; relative viability (Olaparib; 0.08 µM): 1; relative viability (Olaparib; 0.253 µM): 0.966; relative viability (Olaparib; 2.53 µM): 0.946; relative viability (Olaparib; 8 µM): 0.865; relative viability (Olaparib; 8 µM, anchor plate): 0.607

Question: How did the relative viability (Crizotinib; 0.01 µM) turn out when IA-LM was run?
Answer: 0.972

Question: What about the relative viability (Crizotinib; 0.03162 µM) of the same cell line?
Answer: 0.959

Question: What about the relative viability (Crizotinib; 0.1 µM) of the same cell line?
Answer: 1.03

Question: What about the relative viability (Crizotinib; 0.3162 µM) of the same cell line?
Answer: 0.872

Question: What about the relative viability (Crizotinib; 1 µM) of the same cell line?
Answer: 0.888

Question: What about the relative viability (Crizotinib; 1 µM, anchor plate) of the same cell line?
Answer: 0.79

Question: And the relative viability (Olaparib; 0.08 µM)?
Answer: 1.04

Question: And the relative viability (Olaparib; 0.253 µM)?
Answer: 0.889

Question: And the relative viability (Olaparib; 2.53 µM)?
Answer: 0.958

Question: What about the relative viability (Olaparib; 8 µM) of the same cell line?
Answer: 0.79

Question: And the relative viability (Olaparib; 8 µM, anchor plate)?
Answer: 0.853

Question: For LCLC-97TM1, which relative viability (Crizotinib; 0.01 µM) is on record?
Answer: 0.902

Question: What about the relative viability (Crizotinib; 0.03162 µM) of the same cell line?
Answer: 1.1

Question: What about the relative viability (Crizotinib; 0.1 µM) of the same cell line?
Answer: 1

Question: And the relative viability (Crizotinib; 0.3162 µM)?
Answer: 0.727

Question: And the relative viability (Crizotinib; 1 µM)?
Answer: 0.993

Question: What about the relative viability (Crizotinib; 1 µM, anchor plate) of the same cell line?
Answer: 0.338

Question: What about the relative viability (Olaparib; 0.08 µM) of the same cell line?
Answer: 1.02

Question: What about the relative viability (Olaparib; 0.253 µM) of the same cell line?
Answer: 0.938

Question: What about the relative viability (Olaparib; 2.53 µM) of the same cell line?
Answer: 0.904

Question: What about the relative viability (Olaparib; 8 µM) of the same cell line?
Answer: 0.913

Question: What about the relative viability (Olaparib; 8 µM, anchor plate) of the same cell line?
Answer: 0.374

Question: With LXF-289 as the cell line, how does the relative viability (Crizotinib; 0.01 µM) read?
Answer: 0.967

Question: What about the relative viability (Crizotinib; 0.03162 µM) of the same cell line?
Answer: 1.03

Question: And the relative viability (Crizotinib; 0.1 µM)?
Answer: 1.08

Question: What about the relative viability (Crizotinib; 0.3162 µM) of the same cell line?
Answer: 0.844

Question: What about the relative viability (Crizotinib; 1 µM) of the same cell line?
Answer: 1.01

Question: What about the relative viability (Crizotinib; 1 µM, anchor plate) of the same cell line?
Answer: 0.809

Question: And the relative viability (Olaparib; 0.08 µM)?
Answer: 1.12

Question: And the relative viability (Olaparib; 0.253 µM)?
Answer: 0.979

Question: What about the relative viability (Olaparib; 2.53 µM) of the same cell line?
Answer: 1.1

Question: What about the relative viability (Olaparib; 8 µM) of the same cell line?
Answer: 1.03

Question: And the relative viability (Olaparib; 8 µM, anchor plate)?
Answer: 1.07

Question: How did the relative viability (Crizotinib; 0.01 µM) turn out when HCC-78 was run?
Answer: 0.916

Question: And the relative viability (Crizotinib; 0.03162 µM)?
Answer: 0.993

Question: What about the relative viability (Crizotinib; 0.1 µM) of the same cell line?
Answer: 1.01

Question: What about the relative viability (Crizotinib; 0.3162 µM) of the same cell line?
Answer: 0.476

Question: What about the relative viability (Crizotinib; 1 µM) of the same cell line?
Answer: 0.778

Question: And the relative viability (Crizotinib; 1 µM, anchor plate)?
Answer: 0.348

Question: What about the relative viability (Olaparib; 0.08 µM) of the same cell line?
Answer: 1.1

Question: And the relative viability (Olaparib; 0.253 µM)?
Answer: 0.836

Question: What about the relative viability (Olaparib; 2.53 µM) of the same cell line?
Answer: 0.953

Question: And the relative viability (Olaparib; 8 µM)?
Answer: 0.861

Question: What about the relative viability (Olaparib; 8 µM, anchor plate) of the same cell line?
Answer: 0.831

Question: With NCI-H2405 as the cell line, how does the relative viability (Crizotinib; 0.01 µM) read?
Answer: 1.01

Question: And the relative viability (Crizotinib; 0.03162 µM)?
Answer: 0.977

Question: And the relative viability (Crizotinib; 0.1 µM)?
Answer: 0.909

Question: And the relative viability (Crizotinib; 0.3162 µM)?
Answer: 0.949

Question: What about the relative viability (Crizotinib; 1 µM) of the same cell line?
Answer: 0.973

Question: What about the relative viability (Crizotinib; 1 µM, anchor plate) of the same cell line?
Answer: 0.789

Question: What about the relative viability (Olaparib; 0.08 µM) of the same cell line?
Answer: 1.09

Question: What about the relative viability (Olaparib; 0.253 µM) of the same cell line?
Answer: 0.884

Question: And the relative viability (Olaparib; 2.53 µM)?
Answer: 0.945

Question: What about the relative viability (Olaparib; 8 µM) of the same cell line?
Answer: 1.02

Question: What about the relative viability (Olaparib; 8 µM, anchor plate) of the same cell line?
Answer: 0.853

Question: With NCI-H727 as the cell line, how does the relative viability (Crizotinib; 0.01 µM) read?
Answer: 0.693

Question: What about the relative viability (Crizotinib; 0.03162 µM) of the same cell line?
Answer: 1.03

Question: What about the relative viability (Crizotinib; 0.1 µM) of the same cell line?
Answer: 1

Question: What about the relative viability (Crizotinib; 0.3162 µM) of the same cell line?
Answer: 0.779

Question: And the relative viability (Crizotinib; 1 µM)?
Answer: 1.17

Question: And the relative viability (Crizotinib; 1 µM, anchor plate)?
Answer: 0.868

Question: And the relative viability (Olaparib; 0.08 µM)?
Answer: 1.04

Question: And the relative viability (Olaparib; 0.253 µM)?
Answer: 0.753

Question: What about the relative viability (Olaparib; 2.53 µM) of the same cell line?
Answer: 0.783

Question: What about the relative viability (Olaparib; 8 µM) of the same cell line?
Answer: 0.736

Question: And the relative viability (Olaparib; 8 µM, anchor plate)?
Answer: 0.741

Question: What does the source list for LC-2-ad?
Answer: relative viability (Crizotinib; 0.01 µM): 0.921; relative viability (Crizotinib; 0.03162 µM): 1.02; relative viability (Crizotinib; 0.1 µM): 1.02; relative viability (Crizotinib; 1 µM, anchor plate): 0.458; relative viability (Olaparib; 0.08 µM): 1.09; relative viability (Olaparib; 0.253 µM): 0.89; relative viability (Olaparib; 2.53 µM): 0.943; relative viability (Olaparib; 8 µM): 0.866; relative viability (Olaparib; 8 µM, anchor plate): 0.697

Question: Which relative viability (Crizotinib; 0.01 µM) does the source give for EBC-1 here?
Answer: 0.965

Question: And the relative viability (Crizotinib; 0.03162 µM)?
Answer: 1.05

Question: And the relative viability (Crizotinib; 0.1 µM)?
Answer: 0.976

Question: What about the relative viability (Crizotinib; 0.3162 µM) of the same cell line?
Answer: 0.17

Question: And the relative viability (Crizotinib; 1 µM)?
Answer: 0.199

Question: And the relative viability (Crizotinib; 1 µM, anchor plate)?
Answer: 0.192

Question: What about the relative viability (Olaparib; 0.08 µM) of the same cell line?
Answer: 1.2

Question: And the relative viability (Olaparib; 0.253 µM)?
Answer: 0.883

Question: What about the relative viability (Olaparib; 2.53 µM) of the same cell line?
Answer: 0.98

Question: And the relative viability (Olaparib; 8 µM)?
Answer: 0.752

Question: And the relative viability (Olaparib; 8 µM, anchor plate)?
Answer: 0.703

Question: Which relative viability (Crizotinib; 0.01 µM) does the source give for NCI-H1703 here?
Answer: 0.794

Question: And the relative viability (Crizotinib; 0.03162 µM)?
Answer: 1.08

Question: What about the relative viability (Crizotinib; 0.1 µM) of the same cell line?
Answer: 0.918

Question: What about the relative viability (Crizotinib; 0.3162 µM) of the same cell line?
Answer: 0.968

Question: What about the relative viability (Crizotinib; 1 µM) of the same cell line?
Answer: 1.14

Question: And the relative viability (Crizotinib; 1 µM, anchor plate)?
Answer: 0.728

Question: What about the relative viability (Olaparib; 0.08 µM) of the same cell line?
Answer: 1.1

Question: And the relative viability (Olaparib; 0.253 µM)?
Answer: 0.826

Question: What about the relative viability (Olaparib; 2.53 µM) of the same cell line?
Answer: 0.983

Question: What about the relative viability (Olaparib; 8 µM) of the same cell line?
Answer: 0.974

Question: What about the relative viability (Olaparib; 8 µM, anchor plate) of the same cell line?
Answer: 0.453
